According to ChEMBL document CHEMBL1152114, “Synthesis of conformationally constrained potential inhibitors of mammalian metalloproteinases” (Bioorg Med Chem Lett, 1997):
pIC50: −log10 of the molar value.

Assays:
[1] = biological target: 72 kDa type IV collagenase (Homo sapiens, UniProt P08253); assay: Inhibition of Gelatinase A, matrix metalloprotease-2
[2] = biological target: Matrix metalloproteinase-9 (Homo sapiens, UniProt P14780); assay: Inhibition of Gelatinase B, matrix metalloprotease-9
[3] = system: L1210; assay: Compound was evaluated for the inhibitory activity against L1210 cell lines; format: functional, cell-based; details: Mus musculus

72 kDa type IV collagenase, sequence (P08253 whole entry): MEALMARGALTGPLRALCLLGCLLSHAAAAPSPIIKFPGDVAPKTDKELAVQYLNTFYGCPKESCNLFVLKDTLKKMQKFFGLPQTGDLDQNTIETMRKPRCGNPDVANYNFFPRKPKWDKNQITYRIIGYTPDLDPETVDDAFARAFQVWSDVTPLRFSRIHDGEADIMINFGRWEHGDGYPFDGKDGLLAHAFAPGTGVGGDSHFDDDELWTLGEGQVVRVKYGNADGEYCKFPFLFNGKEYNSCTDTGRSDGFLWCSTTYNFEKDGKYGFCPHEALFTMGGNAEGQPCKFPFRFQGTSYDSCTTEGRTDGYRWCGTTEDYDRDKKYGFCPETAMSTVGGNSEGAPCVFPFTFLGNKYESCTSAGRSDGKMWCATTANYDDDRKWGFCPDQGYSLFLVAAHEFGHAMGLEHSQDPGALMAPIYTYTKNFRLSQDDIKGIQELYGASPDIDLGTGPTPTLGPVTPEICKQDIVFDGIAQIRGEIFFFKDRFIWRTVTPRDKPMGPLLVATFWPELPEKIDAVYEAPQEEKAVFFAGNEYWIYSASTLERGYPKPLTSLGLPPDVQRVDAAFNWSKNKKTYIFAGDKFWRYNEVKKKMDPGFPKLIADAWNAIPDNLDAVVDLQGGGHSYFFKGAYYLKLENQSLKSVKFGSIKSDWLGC
Matrix metalloproteinase-9, sequence (P14780 whole entry): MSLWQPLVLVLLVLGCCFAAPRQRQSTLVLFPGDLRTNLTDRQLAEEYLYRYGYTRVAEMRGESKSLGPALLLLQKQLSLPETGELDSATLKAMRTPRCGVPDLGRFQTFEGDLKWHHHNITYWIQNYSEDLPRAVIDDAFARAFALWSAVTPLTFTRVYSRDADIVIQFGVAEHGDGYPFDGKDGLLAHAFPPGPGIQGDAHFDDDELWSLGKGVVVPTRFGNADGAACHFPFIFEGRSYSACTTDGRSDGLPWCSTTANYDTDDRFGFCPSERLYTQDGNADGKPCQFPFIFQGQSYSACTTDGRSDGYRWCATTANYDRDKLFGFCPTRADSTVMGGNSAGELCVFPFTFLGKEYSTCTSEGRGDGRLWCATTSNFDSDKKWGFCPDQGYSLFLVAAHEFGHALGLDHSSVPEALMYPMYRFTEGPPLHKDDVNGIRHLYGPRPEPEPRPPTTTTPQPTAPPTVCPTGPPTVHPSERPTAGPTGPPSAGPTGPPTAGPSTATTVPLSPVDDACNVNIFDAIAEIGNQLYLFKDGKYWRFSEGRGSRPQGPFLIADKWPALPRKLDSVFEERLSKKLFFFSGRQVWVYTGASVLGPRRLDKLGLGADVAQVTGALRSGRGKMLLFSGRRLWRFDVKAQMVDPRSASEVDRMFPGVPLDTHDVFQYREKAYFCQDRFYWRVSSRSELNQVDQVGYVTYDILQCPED

pIC50 [1]: 4.49
pIC50 [2]: 4.44
pIC50 [3]: < 3.00
SMILES: CNC(=O)[C@H](Cc1ccccc1)NC(=O)[C@H]1[C@@H](COCC(=O)NO)[C@@H]1CSc1ccccc1
